Source: patent publication EP0048613B1, “4-0-Substituted -2-deoxystreptamine aminoglycoside derivatives, their preparation and formulations containing them” (ELI LILLY AND COMPANY, priority 1980, dated 1982)
Values after ≈ are worked out from the molar mass of the structure shown.

Experiments:
[1] = system: Bordetella bronchiseptica 16; test: MIC, standard agar dilution test; type: cell-based; conditions: for MIC: read-out: Minimum inhibitory concentration
From the text: (§1) The antibacterial activity of the deprotected compounds of this invention is illustrated by the following in vitro and in vivo test data obtained with representative compounds. In Table I, the minimum inhibitory concentration (MIC) for representative compounds against a wide range of gram-positive and gram-negative bacteria is presented. The MIC values were obtained by the standard agar dilution test.

[2] = system: Citrobacter freundii CF17; test: MIC, standard agar dilution test; type: cell-based; conditions: for MIC: read-out: Minimum inhibitory concentration
From the text: as §1

[3] = system: Enterobacter aerogenes C32; test: MIC, standard agar dilution test; type: cell-based; conditions: for MIC: Klebsiella aerogenes, read-out: Minimum inhibitory concentration
From the text: as §1

[4] = system: Enterobacter aerogenes EB17; test: MIC, standard agar dilution test; type: cell-based; conditions: for MIC: Klebsiella aerogenes, read-out: Minimum inhibitory concentration
From the text: as §1

[5] = system: Enterobacter aerogenes X68; test: MIC, standard agar dilution test; type: cell-based; conditions: for MIC: Klebsiella aerogenes, read-out: Minimum inhibitory concentration
From the text: as §1

[6] = system: Enterobacter cloacae 265A; test: MIC, standard agar dilution test; type: cell-based; conditions: for MIC: read-out: Minimum inhibitory concentration
From the text: as §1

Enterobacter cloacae EB5 = test: MIC, standard agar dilution test; type: cell-based; conditions: for MIC: read-out: Minimum inhibitory concentration
From the text: as §1

Escherichia coli EC14 = test: MIC, standard agar dilution test; type: cell-based; conditions: for MIC: read-out: Minimum inhibitory concentration
From the text: as §1

Escherichia coli N10 = test: MIC, standard agar dilution test; type: cell-based; conditions: for MIC: read-out: Minimum inhibitory concentration
From the text: as §1

Escherichia coli TEM = test: MIC, standard agar dilution test; type: cell-based; conditions: for MIC: Escherichia coli, read-out: Minimum inhibitory concentration
From the text: as §1

Hemophilus influenzae 76 = test: MIC, standard agar dilution test; type: cell-based; conditions: for MIC: Haemophilus influenzae, read-out: Minimum inhibitory concentration
From the text: as §1

[7] = system: Hemophilus influenzae C.L.; test: MIC, standard agar dilution test; type: cell-based; conditions: for MIC: Haemophilus influenzae, read-out: Minimum inhibitory concentration
From the text: as §1

[8] = system: Klebsiella pneumoniae KAE; test: MIC, standard agar dilution test; type: cell-based; conditions: for MIC: read-out: Minimum inhibitory concentration
From the text: as §1

[9] = system: Klebsiella pneumoniae X26; test: MIC, standard agar dilution test; type: cell-based; conditions: for MIC: read-out: Minimum inhibitory concentration
From the text: as §1

Proteus inconstans PR33 = test: MIC, standard agar dilution test; type: cell-based; conditions: for MIC: Providencia alcalifaciens, read-out: Minimum inhibitory concentration
From the text: as §1

Proteus morganii PR15 = test: MIC, standard agar dilution test; type: cell-based; conditions: for MIC: Morganella morganii, read-out: Minimum inhibitory concentration
From the text: as §1

Proteus rettgeri C24 = test: MIC, standard agar dilution test; type: cell-based; conditions: for MIC: Providencia rettgeri, read-out: Minimum inhibitory concentration
From the text: as §1

Proteus rettgeri PR7 = test: MIC, standard agar dilution test; type: cell-based; conditions: for MIC: Providencia rettgeri, read-out: Minimum inhibitory concentration
From the text: as §1

[10] = system: Pseudomonas aeruginosa Ps18; test: MIC, standard agar dilution test; type: cell-based; conditions: for MIC: read-out: Minimum inhibitory concentration
From the text: as §1

[11] = system: Pseudomonas aeruginosa X239; test: MIC, standard agar dilution test; type: cell-based; conditions: for MIC: read-out: Minimum inhibitory concentration
From the text: as §1

[12] = system: Pseudomonas aeruginosa X528; test: MIC, standard agar dilution test; type: cell-based; conditions: for MIC: read-out: Minimum inhibitory concentration
From the text: as §1

[13] = system: Salmonella heidelberg X514; test: MIC, standard agar dilution test; type: cell-based; conditions: for MIC: Salmonella enterica, read-out: Minimum inhibitory concentration
From the text: as §1

[14] = system: Salmonella typhimurium 1335; test: MIC, standard agar dilution test; type: cell-based; conditions: for MIC: Salmonella enterica, read-out: Minimum inhibitory concentration
From the text: as §1

Serratia marcescens SE3 = test: MIC, standard agar dilution test; type: cell-based; conditions: for MIC: read-out: Minimum inhibitory concentration
From the text: as §1

Serratia marcescens X99 = test: MIC, standard agar dilution test; type: cell-based; conditions: for MIC: read-out: Minimum inhibitory concentration
From the text: as §1

Shigella sonnei N9 = test: MIC, standard agar dilution test; type: cell-based; conditions: for MIC: read-out: Minimum inhibitory concentration
From the text: as §1

[15] = system: Staphylococcus aureus S13E; test: MIC, standard agar dilution test; type: cell-based; conditions: for MIC: Staphylococcus aureus, S13E, read-out: Minimum inhibitory concentration
From the text: as §1

[16] = system: Staphylococcus aureus V41; test: MIC, standard agar dilution test; type: cell-based; conditions: for MIC: read-out: Minimum inhibitory concentration
From the text: as §1

[17] = system: Staphylococcus aureus X1.1; test: MIC, standard agar dilution test; type: cell-based; conditions: for MIC: read-out: Minimum inhibitory concentration
From the text: as §1

[18] = system: Staphylococcus aureus X400; test: MIC, standard agar dilution test; type: cell-based; conditions: for MIC: read-out: Minimum inhibitory concentration
From the text: as §1

[19] = system: Staphylococcus epidermidis EPI1; test: MIC, standard agar dilution test; type: cell-based; conditions: for MIC: Staphylococcus epidermidis, EPI1, read-out: Minimum inhibitory concentration
From the text: as §1

[20] = system: Staphylococcus epidermidis EPI2; test: MIC, standard agar dilution test; type: cell-based; conditions: for MIC: read-out: Minimum inhibitory concentration
From the text: as §1

[21] = system: Streptococcus group D 9960; test: MIC, standard agar dilution test; type: cell-based; conditions: for MIC: D9960, read-out: Minimum inhibitory concentration
From the text: as §1

[22] = system: Streptococcus group D X66; test: MIC, standard agar dilution test; type: cell-based; conditions: for MIC: DX66, read-out: Minimum inhibitory concentration
From the text: as §1

[23] = system: Streptococcus pneumoniae Park I; test: MIC, standard agar dilution test; type: cell-based; conditions: for MIC: Streptococcus pneumoniae, read-out: Minimum inhibitory concentration
From the text: as §1

[24] = system: Streptococcus pyogenes C203; test: MIC, standard agar dilution test; type: cell-based; conditions: for MIC: read-out: Minimum inhibitory concentration
From the text: as §1

[25] = system: Staphylococcus aureus 3055; test: Subcutaneous therapy of experimental bacterial infection in mice; type: in vivo; conditions: subcutaneous doses at 1 and 5 hours post infection; for ED50: Staphylococcus aureus, 3055, sc, challenged with 68.1 LD50's, read-out: Effective dose (ED50)
Procedure: Table II illustrates the effective dose (ED50, effective dose to protect 50 percent of the test animals) for representative compounds of this invention against an experimental bacterial infection in mice.
The EDso values were determined as described by W. E. Wick et al., Journal of Bacteriology, 81 [No. 2], 233-235 (1961).

CNC1C(OC2OC(CO)C(N)C(O)C2O)OC2CC(NC(=O)C(O)CCN)C(OC3C(N)CC(N)C(O)C3O)OC2C1O (stereo not drawn) [Test compound 1, 2′-N-(S-γ-Amino-α-hydroxybutyryl)apramycin]
MIC [1]: 128 mg/L (≈ 200 µM) | MIC [2]: 32 mg/L (≈ 49.9 µM) | MIC [3]: 16 mg/L (≈ 25 µM) | MIC [4]: 16 mg/L (≈ 25 µM) | MIC [5]: 16 mg/L (≈ 25 µM) | MIC [6]: 64 mg/L (≈ 99.9 µM) | MIC (Enterobacter cloacae EB5): 32 mg/L (≈ 49.9 µM) | MIC (Escherichia coli EC14): 32 mg/L (≈ 49.9 µM) | MIC (Escherichia coli N10): 16 mg/L (≈ 25 µM) | MIC (Escherichia coli TEM): 8 mg/L (≈ 12.5 µM) | MIC (Hemophilus influenzae 76): 32 mg/L (≈ 49.9 µM) | MIC [7]: 64 mg/L (≈ 99.9 µM) | MIC [8]: 16 mg/L (≈ 25 µM) | MIC [9]: 8 mg/L (≈ 12.5 µM) | MIC (Proteus inconstans PR33): 16 mg/L (≈ 25 µM) | MIC (Proteus morganii PR15): 128 mg/L (≈ 200 µM) | MIC (Proteus rettgeri C24): 16 mg/L (≈ 25 µM) | MIC (Proteus rettgeri PR7): 8 mg/L (≈ 12.5 µM) | MIC [10]: 128 mg/L (≈ 200 µM) | MIC [11]: 64 mg/L (≈ 99.9 µM) | MIC [12]: 128 mg/L (≈ 200 µM) | MIC [13]: 32 mg/L (≈ 49.9 µM) | MIC [14]: 16 mg/L (≈ 25 µM) | MIC (Serratia marcescens SE3): 32 mg/L (≈ 49.9 µM) | MIC (Serratia marcescens X99): 16 mg/L (≈ 25 µM) | MIC (Shigella sonnei N9): 32 mg/L (≈ 49.9 µM) | MIC [15]: 16 mg/L (≈ 25 µM) | MIC [16]: 32 mg/L (≈ 49.9 µM) | MIC [17]: 16 mg/L (≈ 25 µM) | MIC [18]: 64 mg/L (≈ 99.9 µM) | MIC [19]: 16 mg/L (≈ 25 µM) | MIC [20]: 4 mg/L (≈ 6.24 µM) | MIC [21]: > 128 mg/L | MIC [22]: > 128 mg/L | MIC [23]: 32 mg/L (≈ 49.9 µM) | MIC [24]: 32 mg/L (≈ 49.9 µM) | ED50 [25]: 6.5 mg/kg

CCNC1CC2OC(OC3OC(CO)C(N)C(O)C3O)C(NC)C(O)C2OC1OC1C(N)CC(N)C(O)C1O (stereo not drawn) [Test compound 4, 2′-N-ethylapramycin]
MIC [1]: 32 mg/L (≈ 56.4 µM) | MIC [2]: 16 mg/L (≈ 28.2 µM) | MIC [3]: 8 mg/L (≈ 14.1 µM) | MIC [4]: 8 mg/L (≈ 14.1 µM) | MIC [5]: 8 mg/L (≈ 14.1 µM) | MIC [6]: 32 mg/L (≈ 56.4 µM) | MIC (Enterobacter cloacae EB5): 16 mg/L (≈ 28.2 µM) | MIC (Escherichia coli EC14): 8 mg/L (≈ 14.1 µM) | MIC (Escherichia coli N10): 8 mg/L (≈ 14.1 µM) | MIC (Escherichia coli TEM): 2 mg/L (≈ 3.52 µM) | MIC (Hemophilus influenzae 76): 16 mg/L (≈ 28.2 µM) | MIC [7]: 16 mg/L (≈ 28.2 µM) | MIC [8]: 8 mg/L (≈ 14.1 µM) | MIC [9]: 4 mg/L (≈ 7.05 µM) | MIC (Proteus inconstans PR33): 8 mg/L (≈ 14.1 µM) | MIC (Proteus morganii PR15): 32 mg/L (≈ 56.4 µM) | MIC (Proteus rettgeri C24): 8 mg/L (≈ 14.1 µM) | MIC (Proteus rettgeri PR7): 8 mg/L (≈ 14.1 µM) | MIC [10]: 32 mg/L (≈ 56.4 µM) | MIC [11]: 64 mg/L (≈ 113 µM) | MIC [12]: 64 mg/L (≈ 113 µM) | MIC [13]: 16 mg/L (≈ 28.2 µM) | MIC [14]: 8 mg/L (≈ 14.1 µM) | MIC (Serratia marcescens SE3): 16 mg/L (≈ 28.2 µM) | MIC (Serratia marcescens X99): 8 mg/L (≈ 14.1 µM) | MIC (Shigella sonnei N9): 8 mg/L (≈ 14.1 µM) | MIC [15]: 8 mg/L (≈ 14.1 µM) | MIC [16]: 8 mg/L (≈ 14.1 µM) | MIC [17]: 4 mg/L (≈ 7.05 µM) | MIC [18]: 16 mg/L (≈ 28.2 µM) | MIC [19]: 8 mg/L (≈ 14.1 µM) | MIC [20]: 2 mg/L (≈ 3.52 µM) | MIC [21]: > 128 mg/L | MIC [22]: 128 mg/L (≈ 225 µM) | MIC [23]: 16 mg/L (≈ 28.2 µM) | MIC [24]: 16 mg/L (≈ 28.2 µM) | ED50 [25]: < 4.35 mg/kg

2′-N-(RS-γ-Amino-α-hydroxybutyryl)apramycin [Test compound 2]
Minimum inhibitory concentration [1]: 128 mg/L | Minimum inhibitory concentration [2]: 32 mg/L | Minimum inhibitory concentration [3]: 16 mg/L | Minimum inhibitory concentration [4]: 32 mg/L | Minimum inhibitory concentration [5]: 16 mg/L | Minimum inhibitory concentration [6]: 64 mg/L | Minimum inhibitory concentration (Enterobacter cloacae EB5): 32 mg/L | Minimum inhibitory concentration (Escherichia coli EC14): 32 mg/L | Minimum inhibitory concentration (Escherichia coli N10): 16 mg/L | Minimum inhibitory concentration (Escherichia coli TEM; Escherichia coli TEM, agar dilution): 8 mg/L | Minimum inhibitory concentration (Hemophilus influenzae 76): 32 mg/L | Minimum inhibitory concentration [7]: 32 mg/L | Minimum inhibitory concentration [8]: 32 mg/L | Minimum inhibitory concentration [9]: 8 mg/L | Minimum inhibitory concentration (Proteus inconstans PR33): 32 mg/L | Minimum inhibitory concentration (Proteus morganii PR15): 128 mg/L | Minimum inhibitory concentration (Proteus rettgeri C24): 16 mg/L | Minimum inhibitory concentration (Proteus rettgeri PR7): 16 mg/L | Minimum inhibitory concentration [10]: 128 mg/L | Minimum inhibitory concentration [11]: 128 mg/L | Minimum inhibitory concentration [12]: 128 mg/L | Minimum inhibitory concentration [13]: 32 mg/L | Minimum inhibitory concentration [14]: 32 mg/L | Minimum inhibitory concentration (Serratia marcescens SE3): 32 mg/L | Minimum inhibitory concentration (Serratia marcescens X99): 16 mg/L | Minimum inhibitory concentration (Shigella sonnei N9): 32 mg/L | Minimum inhibitory concentration ([15]; Staphylococcus aureus S13E, agar dilution): 16 mg/L | Minimum inhibitory concentration [16]: 32 mg/L | Minimum inhibitory concentration [17]: 16 mg/L | Minimum inhibitory concentration [18]: 64 mg/L | Minimum inhibitory concentration ([19]; Staphylococcus epidermidis EPI1, agar dilution): 16 mg/L | Minimum inhibitory concentration [20]: 8 mg/L | Minimum inhibitory concentration [21]: >128 mg/L | Minimum inhibitory concentration [22]: >128 mg/L | Minimum inhibitory concentration ([23]; Streptococcus pneumoniae Park I, agar dilution): 32 mg/L | Minimum inhibitory concentration [24]: 32 mg/L | Effective dose (ED50) ([25]; challenged with 331 LD50's): 21.8^2 mg/kg×2
